Consider 2 compounds from patent US9452225B2, “GLP-1 prodrugs” (Novo Nordisk A/S, priority 2012, dated 2016).

In one data set the target is T1, human GLP-1 receptor (Homo sapiens, UniProt P43220).
T1 construct: expressed in transfected cells; host or cells: BHK cells, clone FCW467-12A (parent line BHKTS13), membranes
Description: In vitro potency, AlphaScreen cAMP assay on membranes. The format is biochemical. The note with it: cAMP formation, membranes of BHK467-12A cells. The procedure: The purpose of this example is to test the activity, or potency, in vitro of, for example, the GLP-1 parent drugs of the prodrugs of the invention.
Purified plasma membranes from a stable transfected cell line, BHK467-12A (tk-ts13), expressing the human GLP-1 receptor were stimulated with the GLP-1 drug in question, and the potency of cAMP production was measured using the AlphaScreen™ cAMP Assay Kit from Perkin Elmer Life Sciences. The basic principle of The AlphaScreen Assay is a competition between endogenous cAMP and exogenously added biotin-cAMP. The capture of cAMP is achieved by using a specific antibody conjugated to acceptor beads.
A stable transfected cell line and a high expressing clone were selected for screening. The cells were grown at 5% CO2 in DMEM, 10% FCS, 1% Pen/Strep (Penicillin/Streptomycin) and preferably 0.5 (alternatively 1.0 mg/ml) of the selection marker G418.
Cells at approximate 80% confluence were washed twice with PBS and harvested with Versene (aqueous solution of the tetrasodium salt of ethylenediaminetetraacetic acid), centrifuged 5 min at 1000 rpm and the supernatant removed. The additional steps were all made on ice. The cell pellet was homogenised by the Ultrathurax for 20-30 s in 10 ml of Buffer 1 (20 mM Na-HEPES, 10 mM EDTA, pH=7.4), centrifuged 15 min at 20,000 rpm and the pellet resuspended in 10 ml of Buffer 2 (20 mM Na-HEPES, 0.1 mM EDTA, pH=7.4). The suspension was homogenised for 20-30 s and centrifuged 15 min at 20,000 rpm. Suspension in Buffer 2, homogenisation and centrifugation was repeated once and the membranes were resuspended in Buffer 2. The protein concentration was determined and the membranes stored at −80° C. until use.
The assay was performed in flat-bottom 96-well plates (Costar cat. no: 3693). The final volume per well was 50 μl.
AlphaScreen cAMP Assay Kit from Perkin Elmer Life Sciences (cat. No: 6760625M); containing Anti-cAMP Acceptor beads (10 U/μl), Streptavidin Donor beads (10 U/μl) and Biotinylated-cAMP (133 U/μl). […]

The nature of data set [1]: Prodrug half-life in vitro, plasma method (minipig heparin plasma). In kind it is in vitro ADME. Particulars: minipig heparin plasma 800 μL + 200 μL 200 mM phosphate pH 7.4, 37° C.; UPLC_A, or UPLC_B for compounds marked *; read-out: T½ in plasma (converted). The procedure: (§1) The purpose of this example is to test the in vitro half-lives (T½) of the GLP-1 prodrugs of the invention, in comparison to conceptually different prodrugs. In what follows two in vitro methods are described, viz. a method conducted in buffer, and a method conducted in plasma.
(§2) The half life of the prodrug (T½) was calculated from the slope of a linear fit to the curve of ln(% prodrug (Y)) as a function of time (t), as follows: Y=÷αt+k Math. 1 T½=ln(2)/α Math. 2 Plasma Method Buffer: 200 mM Phosphate, pH 7.4 at 37° C.
NaH2PO4.2H2O (15.61 g, 100 mmol) was dissolved in milliQ water (approximately 450 mL) and adjusted to pH=7.44 at approximately 20° C. with concentrated NaOH (aq) and 1 M NaOH (aq). Water was added to 500.00 mL.
Serum: Minipig Serum, Heparin-Plasma
Fresh blood was tapped from minipig into 9 mL LH lithium heparin Vacuette tubes from Greiner bio-one (catalogue number 455084). After cooling on ice it was centrifuged (10 min, 4° C., 3000 rpm/1942G) and the supernatant isolated and kept at −18° C. before use.
100 nmol of the compound to be tested was dissolved in 200 μL buffer, added to 800 μL plasma (centrifuged), and incubated at 37° C. Samples (50 μL) were drawn at appropriate intervals into 150 μL absolute EtOH. After a short stirring the sample was centrifuged and the supernatant transferred to the UPLC vial (10 μL injection).
The % parent drug compared to prodrug formed as a function of time was evaluated by UPLC, and the half-life calculated, both in the same way as described above under the Buffer method.

The nature of data set [2]: Prodrug half-life in vitro, buffer method. In kind it is physicochemical. The note with it: 25 mM phosphate buffer pH 7.4, 37° C., 1.0 mg/mL; UPLC_A, or UPLC_B for compounds marked *; read-out: T½ in buffer (converted). The procedure:
as §1
Buffer: 25 mM Phosphate (Ionic strength: 154 mM, pH 7.4 at 37° C.)
NaH2PO4.2H2O (1.95 g, 12.5 mmol) and NaCl (2.61 g, 44.7 mmol) were dissolved in millipore water (approximately 450 mL) and adjusted to pH=7.44 at approximately 20° C. with concentrated NaOH and 1 M NaOH. Water was added to 500.00 mL.
The compound to be tested was dissolved in buffer to a concentration of 1.0 mg/mL and incubated at 37° C. Samples were taken at adequate intervals and the % parent drug compared to prodrug formed as function of time was evaluated by the UPLC method as referred to in Table 1 by comparing the areas under the curves for the two corresponding peaks. These UPLC methods are described in the general experimental section above (UPLC_A, and UPLC_B).
as §2
The resulting half-lives are set out in Table 1 below. For comparison, the T½ in buffer of native GLP-1(7-37) (His7 variant of SEQ ID NO: 1) was 13 minutes (0.2 hours).

Numbered stars: 1 amine (or outer) side, 2 acyl side, 3 side chain; on linkers, the order of the positions; unused ones are H or OH. Square brackets hold non-standard residues; d marks the D form. Side chains are listed from the residue outwards. Peptide text beside a SMILES is read from it. * marks the point of attachment. Decanoyl(10-(4-HOOC-PhO)) = O=C(O)c1ccc(OCCCCCCCCCC(=O)*)cc1; Lactoyl(3-(imidazol-4-yl)) = O=C([C@@H](O)Cc1c[nH]cn1)*; Lac(3-(imidazol-4-yl)) = O=C(O)[C@@H](O)Cc1c[nH]cn1; γGlu = O=C(O)[C@H](CCC(=O)[*:2])N[*:1]; AEEA = NCCOCCOCC(=O)O

T1 sequence (P43220 24-463): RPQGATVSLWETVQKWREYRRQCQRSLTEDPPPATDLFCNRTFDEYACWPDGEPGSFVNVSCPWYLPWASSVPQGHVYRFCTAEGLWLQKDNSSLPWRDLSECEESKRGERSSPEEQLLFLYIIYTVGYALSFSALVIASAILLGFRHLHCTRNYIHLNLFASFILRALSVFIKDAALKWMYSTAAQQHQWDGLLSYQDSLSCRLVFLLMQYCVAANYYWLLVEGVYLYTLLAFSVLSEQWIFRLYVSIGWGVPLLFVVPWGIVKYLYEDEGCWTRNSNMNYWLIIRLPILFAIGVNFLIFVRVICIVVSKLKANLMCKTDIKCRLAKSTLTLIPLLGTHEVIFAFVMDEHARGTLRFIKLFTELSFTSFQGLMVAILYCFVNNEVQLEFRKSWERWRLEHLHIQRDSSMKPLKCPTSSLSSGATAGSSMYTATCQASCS

For the compound `CC[C@H](C)[C@H](NC(=O)[C@H](Cc1ccccc1)NC(=O)[C@H](CCC(=O)O)NC(=O)[C@H](CCCCNC(=O)COCCOCCNC(=O)COCCOCCNC(=O)CC[C@H](NC(=O)CCCCCCCCCOc1ccc(C(=O)O)cc1)C(=O)O)NC(=O)[C@H](C)NC(=O)[C@H](C)NC(=O)[C@H](CCC(N)=O)NC(=O)[C@H](CCC(=O)O)NC(=O)[C@H](CCC(=O)O)NC(=O)[C@H](CC(C)C)NC(=O)[C@H](Cc1ccc(O)cc1)NC(=O)[C@H](CCCCNC(=O)COCCOCCNC(=O)COCCOCCNC(=O)CC[C@H](NC(=O)CCCCCCCCCOc1ccc(C(=O)O)cc1)C(=O)O)NC(=O)[C@H](CO)NC(=O)[C@@H](NC(=O)[C@H](CC(=O)O)NC(=O)[C@H](CO)NC(=O)[C@@H](NC(=O)[C@H](Cc1ccccc1)NC(=O)[C@@H](NC(=O)CNC(=O)[C@H](CCC(=O)O)NC(=O)[C@H](C)NC(=O)[C@@H](O)Cc1c[nH]cn1)[C@@H](C)O)[C@@H](C)O)C(C)C)C(=O)N[C@@H](C)C(=O)N[C@@H](Cc1c[nH]c2ccccc12)C(=O)N[C@@H](CC(C)C)C(=O)N[C@H](C(=O)N[C@@H](CCC(N)=O)C(=O)NCC(=O)N[C@@H](CCCNC(=N)N)C(=O)NCC(=O)O)C(C)C` [Example B2.3] ({Lactoyl(3-(imidazol-4-yl))}-AEGTFTSDVSK([AEEA-AEEA-γGlu-Decanoyl(10-(4-HOOC-PhO))])YLEEQAAK([AEEA-AEEA-γGlu-Decanoyl(10-(4-HOOC-PhO))])EFIAWLVQGRG-OH; C-terminus assumed), the 50% effective concentration (EC50) on human GLP-1 receptor amounted to 1300 pM.

As for `CC[C@H](C)[C@H](NC(=O)[C@H](Cc1ccccc1)NC(=O)[C@H](CCC(=O)O)NC(=O)[C@H](CCCNC(=N)N)NC(=O)[C@@H](NC(=O)[C@H](C)NC(=O)[C@H](CCC(N)=O)NC(=O)[C@H](CCC(=O)O)NC(=O)[C@H](CCC(=O)O)NC(=O)[C@H](CC(C)C)NC(=O)[C@H](Cc1ccc(O)cc1)NC(=O)[C@H](CCCCNC(=O)COCCOCCNC(=O)COCCOCCNC(=O)CC[C@H](NC(=O)CCCCCCCCCOc1ccc(C(=O)O)cc1)C(=O)O)NC(=O)[C@H](CO)NC(=O)[C@@H](NC(=O)[C@H](CC(=O)O)NC(=O)[C@H](CO)NC(=O)[C@@H](NC(=O)[C@H](Cc1ccccc1)NC(=O)[C@@H](NC(=O)CNC(=O)[C@H](CCC(=O)O)NC(=O)[C@H](C)NC(=O)[C@H](Cc1c[nH]cn1)OC(=O)[C@@H](NC(=O)[C@@H](N)C(C)C)C(C)C)[C@@H](C)O)[C@@H](C)O)C(C)C)C(C)C)C(=O)N[C@@H](C)C(=O)N[C@@H](CCCCNC(=O)COCCOCCNC(=O)COCCOCCNC(=O)CC[C@H](NC(=O)CCCCCCCCCOc1ccc(C(=O)O)cc1)C(=O)O)C(=O)N[C@@H](CC(C)C)C(=O)N[C@H](C(=O)N[C@@H](CCCNC(=N)N)C(=O)NCC(=O)N[C@@H](CCCNC(=N)N)C(=O)NCC(=O)O)C(C)C` [Example 2a] (H-VV[Lac(3-(imidazol-4-yl))]AEGTFTSDVSK([AEEA-AEEA-γGlu-Decanoyl(10-(4-HOOC-PhO))])YLEEQAVREFIAK([AEEA-AEEA-γGlu-Decanoyl(10-(4-HOOC-PhO))])LVRGRG-OH), in data set [1], the half-life is 4.6 h. Besides, the half-life at 1 mg/mL in data set [2] is 10.5 h.
